In ChEMBL document CHEMBL4184310, “Structure-based design and structure-activity relationships of 1,2,3,4-tetrahydroisoquinoline derivatives as potential PDE4 inhibitors” (Bioorg Med Chem Lett, 2018):

Legend:
[1] = Inhibition of PDE4 in human PBMC assessed as reduction in LPS-stimulated TNFalpha release preincubated for 30 mins followed by LPS stimulation for 18 hrs by TR-FRET assay; format: cell-based
[2] = molecular target: 3',5'-cyclic-AMP phosphodiesterase 4D (Homo sapiens, UniProt Q08499); assay: Inhibition of human U937 cells-derived PDE4D using [3H]-cAMP as substrate after 30 mins
[3] = molecular target: 3',5'-cyclic-AMP phosphodiesterase 4B (Homo sapiens, UniProt Q07343); assay: Inhibition of human U937 cells-derived PDE4B using [3H]-cAMP as substrate after 30 mins
[4] = Stability in rat plasma assessed as parent compound remaining after 4 hrs; format: ADME, cell-free; settings: read-out: Stability
Homo sapiens [5] = organism: Homo sapiens; assay: Selectivity ratio of IC50 for human U937 cells-derived PDE4D to IC50 for human U937 cells-derived PDE4B
[6] = Stability in rat plasma assessed as parent compound remaining after 8 hrs; format: ADME, cell-free; settings: read-out: Stability
Rattus norvegicus = assay: Anti-inflammatory activity in Sprague-Dawley rat model of LPS-induced asthma/COPD assessed as inhibition of neutrophilia in BALF at 10 mg/kg, po administered 30 mins prior to LPS challenge for 40 mins relative to control; format: functional
Mus musculus = assay: Anti-inflammatory activity in Swiss albino mouse model of sepsis assessed as inhibition of LPS-induced TNFalpha release at 10 mg/kg, po administered 30 mins prior to LPS challenge for 90 mins by ELISA relative to control; format: functional
[7] = molecular target: T1, cGMP-dependent 3',5'-cyclic phosphodiesterase (Homo sapiens, UniProt O00408); assay: Inhibition of human PDE2A
[8] = molecular target: T2, Dual specificity calcium/calmodulin-dependent 3',5'-cyclic nucleotide phosphodiesterase 1A (Homo sapiens, UniProt P54750); assay: Inhibition of human PDE1A
[9] = molecular target: T3, cAMP and cAMP-inhibited cGMP 3',5'-cyclic phosphodiesterase 10A (Homo sapiens, UniProt Q9Y233); assay: Inhibition of human PDE10A2 at 50 uM relative to control
[10] = molecular target: T4, Dual 3',5'-cyclic-AMP and -GMP phosphodiesterase 11A (Homo sapiens, UniProt Q9HCR9); assay: Inhibition of human PDE11A at 50 uM relative to control
[11] = molecular target: T5, High affinity cAMP-specific and IBMX-insensitive 3',5'-cyclic phosphodiesterase 8A (Homo sapiens, UniProt O60658); assay: Inhibition of human PDE8A1 at 50 uM relative to control
[12] = molecular target: T6, High affinity cGMP-specific 3',5'-cyclic phosphodiesterase 9A (Homo sapiens, UniProt O76083); assay: Inhibition of human PDE9A2 at 50 uM relative to control
[13] = molecular target: T7, High affinity 3',5'-cyclic-AMP phosphodiesterase 7A (Homo sapiens, UniProt Q13946); assay: Inhibition of human PDE7A at 50 uM relative to control
[14] = molecular target: T8, Cone cGMP-specific 3',5'-cyclic phosphodiesterase subunit alpha' (Homo sapiens, UniProt P51160); assay: Inhibition of human PDE6C at 50 uM relative to control
[15] = molecular target: T9, cGMP-specific 3',5'-cyclic phosphodiesterase (Homo sapiens, UniProt O76074); assay: Inhibition of human PDE5A at 50 uM relative to control
[16] = molecular target: T10, cGMP-inhibited 3',5'-cyclic phosphodiesterase 3B (Homo sapiens, UniProt Q13370); assay: Inhibition of human PDE3B at 50 uM relative to control
[17] = molecular target: T1, cGMP-dependent 3',5'-cyclic phosphodiesterase; assay: Inhibition of human PDE2A at 50 uM relative to control
[18] = molecular target: T2, Dual specificity calcium/calmodulin-dependent 3',5'-cyclic nucleotide phosphodiesterase 1A; assay: Inhibition of human PDE1A at 50 uM relative to control
Homo sapiens [19] = organism: Homo sapiens; assay: Potency index, ratio of rolipram IC50 to compound IC50 for inhibition of PDE4 in human PBMC
[20] = molecular target: T10, cGMP-inhibited 3',5'-cyclic phosphodiesterase 3B; assay: Inhibition of human PDE3B
[21] = molecular target: T9, cGMP-specific 3',5'-cyclic phosphodiesterase; assay: Inhibition of human PDE5A
[22] = molecular target: T8, Cone cGMP-specific 3',5'-cyclic phosphodiesterase subunit alpha'; assay: Inhibition of human PDE6C
[23] = molecular target: T7, High affinity 3',5'-cyclic-AMP phosphodiesterase 7A; assay: Inhibition of human PDE7A
[24] = molecular target: T5, High affinity cAMP-specific and IBMX-insensitive 3',5'-cyclic phosphodiesterase 8A; assay: Inhibition of human PDE8A1
[25] = molecular target: T6, High affinity cGMP-specific 3',5'-cyclic phosphodiesterase 9A; assay: Inhibition of human PDE9A2
[26] = molecular target: T3, cAMP and cAMP-inhibited cGMP 3',5'-cyclic phosphodiesterase 10A; assay: Inhibition of human PDE10A2
[27] = molecular target: T4, Dual 3',5'-cyclic-AMP and -GMP phosphodiesterase 11A; assay: Inhibition of human PDE11A

Chain of 3',5'-cyclic-AMP phosphodiesterase 4D (Q08499 whole entry): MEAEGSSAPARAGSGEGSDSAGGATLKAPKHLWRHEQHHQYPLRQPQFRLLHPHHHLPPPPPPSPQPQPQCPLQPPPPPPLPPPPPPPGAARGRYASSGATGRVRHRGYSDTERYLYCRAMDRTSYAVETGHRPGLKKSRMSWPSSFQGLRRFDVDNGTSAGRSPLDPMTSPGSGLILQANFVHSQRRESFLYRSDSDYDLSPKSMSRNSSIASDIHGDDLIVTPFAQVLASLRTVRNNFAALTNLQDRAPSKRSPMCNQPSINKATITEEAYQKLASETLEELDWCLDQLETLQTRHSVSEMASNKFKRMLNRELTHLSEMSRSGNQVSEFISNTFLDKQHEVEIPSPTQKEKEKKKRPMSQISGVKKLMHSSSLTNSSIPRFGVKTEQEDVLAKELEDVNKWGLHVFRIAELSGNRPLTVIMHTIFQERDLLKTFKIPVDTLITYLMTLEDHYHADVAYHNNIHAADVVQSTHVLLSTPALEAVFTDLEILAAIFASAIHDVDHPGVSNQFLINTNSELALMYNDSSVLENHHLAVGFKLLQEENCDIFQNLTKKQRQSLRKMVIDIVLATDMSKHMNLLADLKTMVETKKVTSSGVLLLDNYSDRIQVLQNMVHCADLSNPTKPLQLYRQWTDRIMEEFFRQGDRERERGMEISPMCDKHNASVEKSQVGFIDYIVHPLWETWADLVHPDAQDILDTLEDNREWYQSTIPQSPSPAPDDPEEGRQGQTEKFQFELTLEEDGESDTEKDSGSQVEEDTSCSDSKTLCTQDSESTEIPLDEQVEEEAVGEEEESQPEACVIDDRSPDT
T8 sequence (P51160 whole entry): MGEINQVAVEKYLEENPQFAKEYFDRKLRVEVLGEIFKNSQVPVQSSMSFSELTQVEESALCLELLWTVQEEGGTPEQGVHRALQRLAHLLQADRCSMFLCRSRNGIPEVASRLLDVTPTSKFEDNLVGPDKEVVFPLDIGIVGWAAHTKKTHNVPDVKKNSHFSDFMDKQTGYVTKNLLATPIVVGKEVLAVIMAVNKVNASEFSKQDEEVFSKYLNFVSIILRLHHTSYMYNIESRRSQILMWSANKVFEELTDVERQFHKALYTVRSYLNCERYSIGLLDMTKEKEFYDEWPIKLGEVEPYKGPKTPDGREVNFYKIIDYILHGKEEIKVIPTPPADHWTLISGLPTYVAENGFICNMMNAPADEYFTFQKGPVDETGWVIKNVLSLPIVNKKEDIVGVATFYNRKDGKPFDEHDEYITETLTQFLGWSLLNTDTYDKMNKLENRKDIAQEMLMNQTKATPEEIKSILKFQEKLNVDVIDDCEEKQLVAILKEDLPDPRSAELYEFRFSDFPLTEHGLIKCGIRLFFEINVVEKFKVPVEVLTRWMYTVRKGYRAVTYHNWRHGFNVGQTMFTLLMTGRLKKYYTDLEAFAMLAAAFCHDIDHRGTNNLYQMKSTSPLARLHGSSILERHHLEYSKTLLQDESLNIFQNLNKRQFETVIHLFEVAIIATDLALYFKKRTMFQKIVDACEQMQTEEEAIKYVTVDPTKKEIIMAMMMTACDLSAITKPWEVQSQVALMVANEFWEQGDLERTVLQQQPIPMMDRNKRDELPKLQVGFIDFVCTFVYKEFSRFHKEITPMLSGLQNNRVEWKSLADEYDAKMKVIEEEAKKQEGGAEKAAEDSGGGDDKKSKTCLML
T5 sequence (O60658 whole entry): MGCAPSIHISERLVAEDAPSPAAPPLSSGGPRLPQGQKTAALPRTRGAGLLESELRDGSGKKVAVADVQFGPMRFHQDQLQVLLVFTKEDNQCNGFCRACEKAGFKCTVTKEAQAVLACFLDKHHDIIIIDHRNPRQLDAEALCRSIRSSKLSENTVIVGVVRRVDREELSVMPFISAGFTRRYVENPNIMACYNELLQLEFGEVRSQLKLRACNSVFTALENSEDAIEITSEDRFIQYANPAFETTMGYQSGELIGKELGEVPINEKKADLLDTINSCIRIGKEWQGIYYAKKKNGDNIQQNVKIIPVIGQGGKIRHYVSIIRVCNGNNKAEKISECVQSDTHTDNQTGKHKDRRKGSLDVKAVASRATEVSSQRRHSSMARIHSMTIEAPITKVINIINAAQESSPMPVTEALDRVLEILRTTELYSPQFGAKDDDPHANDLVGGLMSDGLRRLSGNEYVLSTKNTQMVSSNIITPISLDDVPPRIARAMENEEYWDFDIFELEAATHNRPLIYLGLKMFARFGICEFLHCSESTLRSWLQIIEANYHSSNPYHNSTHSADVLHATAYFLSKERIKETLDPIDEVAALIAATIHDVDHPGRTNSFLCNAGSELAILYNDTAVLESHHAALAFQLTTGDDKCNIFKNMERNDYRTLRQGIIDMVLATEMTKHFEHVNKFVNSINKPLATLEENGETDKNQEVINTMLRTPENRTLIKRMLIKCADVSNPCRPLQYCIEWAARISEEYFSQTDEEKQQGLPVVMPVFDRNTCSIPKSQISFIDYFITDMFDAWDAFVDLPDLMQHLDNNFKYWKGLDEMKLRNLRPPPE
T3 sequence (Q9Y233 whole entry): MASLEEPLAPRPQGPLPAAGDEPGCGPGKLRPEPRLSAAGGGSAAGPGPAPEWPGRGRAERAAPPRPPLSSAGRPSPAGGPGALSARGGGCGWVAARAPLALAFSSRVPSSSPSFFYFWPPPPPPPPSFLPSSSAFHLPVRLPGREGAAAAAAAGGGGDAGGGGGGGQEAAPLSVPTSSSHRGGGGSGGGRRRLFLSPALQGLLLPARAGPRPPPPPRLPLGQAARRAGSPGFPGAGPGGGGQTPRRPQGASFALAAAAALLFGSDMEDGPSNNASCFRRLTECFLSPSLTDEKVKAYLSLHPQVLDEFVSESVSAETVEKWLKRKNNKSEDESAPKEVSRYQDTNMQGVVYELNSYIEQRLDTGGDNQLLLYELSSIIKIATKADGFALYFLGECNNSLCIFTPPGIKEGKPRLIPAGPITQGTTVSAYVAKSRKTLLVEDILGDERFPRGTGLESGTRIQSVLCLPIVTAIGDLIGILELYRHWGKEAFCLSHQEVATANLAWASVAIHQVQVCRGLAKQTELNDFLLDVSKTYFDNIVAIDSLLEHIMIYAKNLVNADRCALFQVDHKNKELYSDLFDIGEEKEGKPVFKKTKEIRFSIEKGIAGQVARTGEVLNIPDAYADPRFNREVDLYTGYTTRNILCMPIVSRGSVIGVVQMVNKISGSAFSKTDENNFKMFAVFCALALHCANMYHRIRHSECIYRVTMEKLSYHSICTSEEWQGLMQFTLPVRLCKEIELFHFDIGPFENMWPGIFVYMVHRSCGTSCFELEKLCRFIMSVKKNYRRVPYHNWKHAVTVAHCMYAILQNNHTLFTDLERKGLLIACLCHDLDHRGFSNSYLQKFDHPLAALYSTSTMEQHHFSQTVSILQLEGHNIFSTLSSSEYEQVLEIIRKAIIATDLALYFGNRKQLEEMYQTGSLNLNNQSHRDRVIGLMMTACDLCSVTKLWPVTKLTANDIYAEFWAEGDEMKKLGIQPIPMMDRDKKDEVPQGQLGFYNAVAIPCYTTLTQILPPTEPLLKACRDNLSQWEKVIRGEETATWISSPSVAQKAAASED
T7 sequence (Q13946 whole entry): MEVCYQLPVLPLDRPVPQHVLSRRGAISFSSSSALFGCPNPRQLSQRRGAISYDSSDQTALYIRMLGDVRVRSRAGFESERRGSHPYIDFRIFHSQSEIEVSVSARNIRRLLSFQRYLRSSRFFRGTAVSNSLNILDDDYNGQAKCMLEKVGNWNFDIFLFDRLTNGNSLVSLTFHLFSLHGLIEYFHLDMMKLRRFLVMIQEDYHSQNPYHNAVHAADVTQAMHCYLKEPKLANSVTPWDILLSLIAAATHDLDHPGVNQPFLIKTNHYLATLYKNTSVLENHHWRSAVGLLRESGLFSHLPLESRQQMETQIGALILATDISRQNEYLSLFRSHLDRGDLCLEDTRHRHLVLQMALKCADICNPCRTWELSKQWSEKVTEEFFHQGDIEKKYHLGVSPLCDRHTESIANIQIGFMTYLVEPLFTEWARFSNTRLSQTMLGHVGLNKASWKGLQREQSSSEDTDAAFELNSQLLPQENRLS
T1 sequence (O00408 whole entry): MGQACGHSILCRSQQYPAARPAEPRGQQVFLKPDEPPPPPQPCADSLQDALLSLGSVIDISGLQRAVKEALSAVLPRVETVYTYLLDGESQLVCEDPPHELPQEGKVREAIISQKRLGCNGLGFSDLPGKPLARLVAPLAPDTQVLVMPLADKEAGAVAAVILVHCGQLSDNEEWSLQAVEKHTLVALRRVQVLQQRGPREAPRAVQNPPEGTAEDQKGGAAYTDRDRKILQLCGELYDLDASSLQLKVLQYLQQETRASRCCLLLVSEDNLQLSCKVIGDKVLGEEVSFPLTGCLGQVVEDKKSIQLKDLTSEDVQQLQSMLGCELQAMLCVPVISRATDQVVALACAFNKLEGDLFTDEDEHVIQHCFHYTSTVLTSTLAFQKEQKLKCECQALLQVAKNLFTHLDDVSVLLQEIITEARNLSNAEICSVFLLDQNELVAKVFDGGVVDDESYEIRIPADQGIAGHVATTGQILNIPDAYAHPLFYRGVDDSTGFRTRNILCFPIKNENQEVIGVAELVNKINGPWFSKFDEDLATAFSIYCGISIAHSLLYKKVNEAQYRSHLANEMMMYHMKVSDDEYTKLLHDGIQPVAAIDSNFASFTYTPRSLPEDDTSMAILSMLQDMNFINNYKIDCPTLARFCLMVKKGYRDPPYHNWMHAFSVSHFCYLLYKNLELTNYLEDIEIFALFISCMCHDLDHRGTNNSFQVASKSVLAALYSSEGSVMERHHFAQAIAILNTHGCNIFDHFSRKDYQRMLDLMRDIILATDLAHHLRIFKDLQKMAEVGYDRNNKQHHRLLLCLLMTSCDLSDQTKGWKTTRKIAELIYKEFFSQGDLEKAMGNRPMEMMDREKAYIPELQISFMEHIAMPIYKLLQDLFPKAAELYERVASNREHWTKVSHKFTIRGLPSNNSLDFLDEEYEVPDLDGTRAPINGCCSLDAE

For `COc1cc2c(cc1OC1CCCC1)CN(C(=O)c1ccc(OC(F)(F)F)cc1)CC2`, the IC50 [1] was 9.85 µM, the IC50 [2] was 6.5 µM and the IC50 [3] was 1.05 µM.

With `COc1cccc(C(=O)N2CCc3cc(OC)c(OC4CCCC4)cc3C2)c1` the IC50 [3] was 19.7 µM.

`CCOC(=O)C1Cc2cc(OC)c(OC3CCCC3)cc2CN1C(=O)c1ccc(OC(F)(F)F)cc1` (centres undefined) showed a remaining at 4 h [4] of 73.7%, a Ratio IC50 (Homo sapiens [5]) of 21 and a remaining at 8 h [6] of 54.9%. The IC50 [1] was 12.6 µM, the IC50 [2] was 32.7 µM and the IC50 [3] was 1.62 µM.

`COc1cc2c(cc1OC1CCCC1)CN(C(=O)c1ccc(OC(F)(F)F)cc1)C(C(=O)O)C2` (centres undefined) gave an IC50 [1] of 69.3 µM and an IC50 [3] of 8.35 µM.

`COc1cc2c(cc1OC1CCCC1)CN(C(=O)c1cccc(Cl)c1)CC2` gave an IC50 [3] of 20.5 µM.

Work on `CNC(=O)C1Cc2cc(OC)c(OC3CCCC3)cc2CN1C(=O)c1ccc(OC(F)(F)F)cc1` (centres undefined) yielded an IC50 [3] of 16.4 µM.

Work on `CCN(CC)C(=O)C1Cc2cc(OC)c(OC3CCCC3)cc2CN1C(=O)c1ccc(OC(F)(F)F)cc1` (centres undefined) yielded an IC50 [3] of 12.7 µM.

In the case of `COc1cc2c(cc1OC1CCCC1)CN(C(=O)c1ccc(O)cc1)CC2`, the IC50 [1] is reported as 48.3 µM, the IC50 [2] is reported as 16.3 µM and the IC50 [3] is reported as 3.25 µM.

Work on `COc1cc2c(cc1OC1CCCC1)CN(C(=O)c1ccc(OC(F)(F)F)cc1)C(C(=O)OC1CCCC1)C2` (centres undefined) yielded an IC50 [3] of over 50 µM.

Work on `COc1cc2c(cc1OC1CCCC1)CN(C(=O)c1ccc(OC(F)(F)F)cc1)C(C(=O)N(C)C)C2` (centres undefined) yielded an IC50 [3] of 8.05 µM.

Compound `COc1ccc(C2CNC(=O)C2)cc1OC1CCCC1` (centres undefined) [ROLIPRAM] has an inhibition in vivo at 10 mg/kg (Rattus norvegicus) of 32.5% and an inhibition in vivo at 10 mg/kg (Mus musculus) of 41.2%.

With `COC(=O)C1Cc2cc(OC)c(OC3CCCC3)cc2CN1C(=O)c1ccc(OC(F)(F)F)cc1` (centres undefined) the IC50 [7] was over 100 µM, the IC50 [8] was over 100 µM and the inhibition [9] was 3%. The inhibition [10] was 6%, the inhibition [11] was 13% and the inhibition [12] was 6%. It also gave an inhibition [13] of 2%, an inhibition [14] of 7% and an inhibition [15] of 12%. For the same compound, the remaining at 4 h [4] was 72.8%, the inhibition [16] was 5% and the inhibition [17] was 9%. For the same compound, the inhibition [18] was 4%, the Ratio IC50 (Homo sapiens [5]) was 21 and the Ratio IC50 (Homo sapiens [19]) was 5. For the same compound, the remaining at 8 h [6] was 51.8%, the inhibition in vivo at 10 mg/kg (Rattus norvegicus) was 45.3% and the inhibition in vivo at 10 mg/kg (Mus musculus) was 50.2%. For the same compound, the IC50 [1] was 2.12 µM, the IC50 [2] was 18.4 µM and the IC50 [3] was 0.88 µM. For the same compound, the IC50 [20] was over 100 µM, the IC50 [21] was over 100 µM and the IC50 [22] was over 100 µM. For the same compound, the IC50 [23] was over 100 µM, the IC50 [24] was over 100 µM and the IC50 [25] was over 100 µM. The IC50 [26] was over 100 µM and the IC50 [27] was over 100 µM.

In the case of `COc1ccc(C(=O)N2CCc3cc(OC)c(OC4CCCC4)cc3C2)cc1OC`, the IC50 [1] is reported as 28.6 µM, the IC50 [2] is reported as 18.3 µM and the IC50 [3] is reported as 2.85 µM.

In the case of `COc1cc2c(cc1OC1CCCC1)CN(C(=O)c1ccc(OC(F)(F)F)cc1)C(C(=O)OCc1ccccc1)C2` (centres undefined), the remaining at 4 h [4] is reported as 84.2%, the remaining at 8 h [6] is reported as 71.6% and the IC50 [3] is reported as over 50 µM.

In the case of `COc1cc2c(cc1OC1CCCC1)CN(S(=O)(=O)c1ccc(Cl)cc1)CC2`, the IC50 [2] is reported as 134 µM and the IC50 [3] is reported as 11 µM.

Work on `COc1cc2c(cc1OC1CCCC1)CN(C(=O)c1ccc(Cl)cc1)CC2` yielded an IC50 [2] of 92.6 µM and an IC50 [3] of 18.4 µM.

`COc1ccc(C(=O)N2CCc3cc(OC)c(OC4CCCC4)cc3C2)cc1O` showed an IC50 [1] of 36.6 µM, an IC50 [2] of 18.6 µM and an IC50 [3] of 3.42 µM.

`COc1ccc(S(=O)(=O)N2CCc3cc(OC)c(OC4CCCC4)cc3C2)cc1` showed an IC50 [1] of 29.7 µM, an IC50 [2] of 43.6 µM and an IC50 [3] of 3.1 µM.

`COc1ccc(C(=O)N2CCc3cc(OC)c(OC4CCCC4)cc3C2)cc1` gave an IC50 [1] of 31.3 µM, an IC50 [2] of 13.3 µM and an IC50 [3] of 2.38 µM.

Work on `COc1cc2c(cc1OC1CCCC1)CN(S(=O)(=O)c1ccc(NC(C)=O)cc1)CC2` yielded an IC50 [7] of over 100 µM, an IC50 [8] of over 100 µM and an inhibition [9] of 3%. It also gave an inhibition [10] of 7%, an inhibition [11] of 11% and an inhibition [12] of 4%. For the same compound, the inhibition [13] was 2%, the inhibition [14] was 8% and the inhibition [15] was 10%. The inhibition [16] was 4%, the inhibition [17] was 10% and the inhibition [18] was 3%. The inhibition in vivo at 10 mg/kg (Rattus norvegicus) was 37.1%, the inhibition in vivo at 10 mg/kg (Mus musculus) was 44.3% and the IC50 [1] was 5.75 µM. It also gave an IC50 [2] of 11.6 µM, an IC50 [3] of 0.95 µM and an IC50 [20] of over 100 µM. For the same compound, the IC50 [21] was over 100 µM, the IC50 [22] was over 100 µM and the IC50 [23] was over 100 µM. The IC50 [24] was over 100 µM, the IC50 [25] was over 100 µM and the IC50 [26] was over 100 µM. The IC50 [27] was over 100 µM.

`CCCCCOC(=O)C1Cc2cc(OC)c(OC3CCCC3)cc2CN1C(=O)c1ccc(OC(F)(F)F)cc1` (centres undefined) showed an IC50 [3] of over 50 µM.

Work on `O=C(Nc1c(Cl)cncc1Cl)c1ccc(OC(F)F)c(OCC2CC2)c1` [ROFLUMILAST] yielded an inhibition in vivo at 10 mg/kg (Rattus norvegicus) of 97.6%, an inhibition in vivo at 10 mg/kg (Mus musculus) of 98.8% and an IC50 [1] of 1.21 µM.
